# Tests used:
# luciferase = test: Activity as a substrate for luciferase; format: biochemical; settings: D-luciferin derivatized on the 6′ hydroxyl with TMQ linker
# Description: (§1) This property may provide an additional advantage in ADCs where it is critical that payload is not released outside of target cells. The observations are as follows. When D-luciferin is derivatized on the 6′ hydroxyl by addition of the TMQ linker, its activity as a substrate for luciferase is blocked (PBI-4312), but free D-luciferin that is fully active with luciferase is readily released
# human diaphorase = human diaphorase (Homo sapiens, UniProt P15559); test: Non-cellular reductive release of luciferin (luciferin detection reagent with reductase and NADH); format: biochemical; settings: after 1 hour, FIG. 3
# Description: as §1
# [drawing 143] from a luciferin-TMQ derivative when subjected to reducing conditions inside or outside of a cell. However, release of D-luciferin from a protein-TMQ-luciferin conjugate by an extracellular reductive mechanism was substantially diminished compared to luciferin-TMQ. In other words, the protein moiety of the conjugate stabilizes the luciferin payload against reductive release from the TMQ linker in a non-cellular environment. Non-cellular reducing conditions include an aqueous reducing agent solution (e.g. DTT) or a reductase reaction mixture (FIG. 3). This was true for two conjugates with a luciferin payload as well as a luciferin-TMQ conjugate with bovine serum albumin (BSA). Whereas the reaction conditions produced substantial amounts of light with PBI-4312 (>900,000 RLU after 1 hour), only minimal signals were produced from similar amounts of the protein conjugates (<800 RLUs after 1 hour). […]
# human diaphorase, sequence (P15559 whole entry): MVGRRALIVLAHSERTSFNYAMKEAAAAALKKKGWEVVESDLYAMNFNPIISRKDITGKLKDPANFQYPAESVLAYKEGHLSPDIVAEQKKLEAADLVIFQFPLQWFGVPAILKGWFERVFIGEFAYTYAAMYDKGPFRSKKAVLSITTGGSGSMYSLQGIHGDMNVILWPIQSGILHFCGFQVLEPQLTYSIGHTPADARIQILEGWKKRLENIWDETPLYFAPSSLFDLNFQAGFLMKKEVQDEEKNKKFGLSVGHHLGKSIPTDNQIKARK
smiles,measurement,setting,value
CC1=C(C)C(=O)C(C(C)(C)CC(=O)N(C)CCN(C)C(=O)Oc2ccc3nc(C4=N[C@@H](C(=O)O)CS4)sc3c2)=C(C)C1=O [PBI-4312],activity as a substrate for luciferase,luciferase,blocked
same,light produced (luciferin luminescence),human diaphorase,"> 900,000 RLU"

# From patent US11857638B2, “Quinone-containing conjugates” (PROMEGA CORPORATION, priority 2018, dated 2024)
